Entries after “also recorded” stand apart in the source; their conditions may differ. Read-outs that look alike come from different tables or passages of the source. Some results are limits rather than exact numbers.

The text below walks through data of publication PMC10879279 (Frontiers in Behavioral Neuroscience, 2024).

In assay [1] the test system is mGluR4. The conditions noted are these: ref Mathiesen et al., 2003; Dalton et al., 2017; cited from earlier work.
For another assay, the system named is mGluR5. The assay can be described thus: Luciferase reporter assay, mGluR5. The settings on record: transfected control cells; for antagonist effect on mGluR5 activity (in words): SIB 1757 10 μM + CHPG 1 mM. Background: Reporter assays use an easily measured gene product as a stand-in for the process of interest.
In the next assay the test system is mGluR1. The assay can be described thus: Luciferase reporter assay, mGluR1. The format is cell-based. The conditions noted are these: DHPG 10 µM; (−)-PHCCC 40 µM; HEK293, N = 3. As for the experimental part: (§1) Figure S5. The mGluR1- and mGliR4-luciferase reporter assay results. HEK293 cells transfected with genetic reporter systems were treated with DHPG (10 µM) or DHPG (10 µM) + (−)-PHCCC (40 µM) in the case of mGluR1 and with L-AP4 (1 µM) or L-AP4 (1 µM) + (−)-PHCCC (40 µM) in the case of mGluR4. LCGM-10 was administered at a dose of 20 and 200 µM. […] The data are presented as the mean ± standard deviation for three biological replicates (N=3 in each group). * P < 0.01 versus the transfected control + control agonist.

Assay [2] concerns mGluR4. The assay can be described thus: Luciferase reporter assay, mGluR4. The format is cell-based. The settings on record: L-AP4 1 µM; (−)-PHCCC 40 µM; HEK293, N = 3. The protocol: as §1
For the next assay, the system named is human mGluR5. Put plainly: Calcium flux imaging, CHO-mGluR5 cells. It is filed as cell-based. From the text: mGluR5 activation leads to Ca^2+ influx that could be blocked by adding a specific antagonists or NAMs ([Kettunen et al., 2002]; [Beggiato et al., 2018]). Elevation of intracellular Ca^2+ levels via the phospholipase C pathway is typical for all Gq-coupled GPCRs ([Liu et al., 2008]) and can be detected using a penetrating Ca^2+ indicator.
The CHO cell line stably expressing human mGluR5 was generated using T-Rex System (Thermo Fisher Scientific Inc., United States) according to the manufacturer’s instructions. Briefly, complementary DNA (cDNA) encoding human mGluR5 was subcloned into the pcDNA4/TO inducible expression vector, which was transfected into CHO cells carrying the pcDNA6/TR regulatory vector that expresses the tetracycline repressor. After 2 weeks of selection using 5 μg/mL blasticidin (Thermo Fisher Scientific Inc.) and 250 μg/mL zeocin (Thermo Fisher Scientific Inc.), pools of cells were screened for the expression of mGluR5 in the agonist-induced Ca^2+ uptake assay. Positive cells were expanded and used. mGluR5 expression was induced by adding up to 1 μg/mL of tetracycline (Thermo Fisher Scientific Inc.) 16 h before testing.
Fluorescent assays were performed using NOVOstar (BMG LABTECH, Germany). CHO-mGluR5 cells were seeded into black-walled, clear-bottomed 96-well plates at a density of 75,000 cells per well (complete media without antibiotics and containing 1 μg/mL of tetracycline to induce receptor expression) and were cultured overnight at 37°C. The cells were then loaded with the cytoplasmic calcium indicator Fluo-4 AM using the Fluo-4 Direct™ Calcium Assay Kits (Thermo Fisher Scientific Inc.) and incubated in the dark at 37°C for 60 min, and then at 25°C for 60 min. The buffer alone (control) or the buffer containing different concentrations of LCGM-10 (0.02, 2, 20, and 200 μM), LCGM-15 (0.02, 2, 20, and 200 μM), or 2-methyl-6-(phenylethynyl) pyridine ([MPEP] 0.1, 1, 10, and 100 μM; Sigma-Aldrich, United States) were added to the cells (in six replicate wells). […] The measurements were performed at pH 7.4 and 37°C.
A general note: Calcium assays in cells follow changes in intracellular calcium, usually with a dye or a luminescent sensor.

The test system of another assay is rodents. The conditions noted are these: ref Guimaraes et al., 2015, cited from earlier work. From the text:
Therefore, we evaluated the potential of LCGM-10 as a therapeutic in male rats submitted to the OF and EPM. […] The importance of mGluR5 for modulating motor behavior has been reported in pharmacological ([Mcgeehan et al., 2004]; [Guimaraes et al., 2015]) as well as knockout ([Gray et al., 2009]; [Jew et al., 2013]; [Ribeiro et al., 2014]) studies in rodents, with so ...

For another assay, the system named is ADHD patients. The settings on record: medium range, smaller than stimulants, ref Cortese et al., 2018; cited from earlier work. From the text: To sum up, the development of new medications for disorders with an excessive impulsivity as a major component is of high interest for both academy and industry. Addictions, including substance use disorder and gambling, faces the unmet need for novel medicines ([Rash et al., 2016]). In case of ADHD there is also a need for new medications with novel mechanisms of action since currently approved drugs show a non-response or lack efficacy in a significant number of patients ([Mechler et al., 2022]). Routinely used stimulant methylphenidate is efficient in up to 70% of cases ([Bodey, 2011]), and ...

The test system of assay [3] is zebrafish. Details: method as in Maximino et al., 2014. The settings on record: similar to LCGM-10 and LCGM-15, ref Maximino et al., 2014, cited from earlier work.
For another assay, the system named is mice. Set-up: method as in Kobayashi et al., 2020. The settings on record: caffeine 25 mg/kg, ref Kobayashi et al., 2020; cited from earlier work.
The subject of a further assay is Wistar rats. Put plainly: Home cage spontaneous locomotor activity (SLA). The format is in vivo, rat (Wistar). As for the experimental part: Wildtype D. rerio (128 fish, shortfin phenotype, 6–8 months of age, male to female ratio 50: 50) were kept in a ZebTEC recirculating system (Tecniplast S.p.a, Buguggiate, Italy), and housed under a 14/10-h photoperiod (lights on at 08: 00 and off at 22: 00). The system parameters were maintained automatically with water set at 28°C, pH 6.8–7.5, […], and constant aeration. Feeding was carried out twice a day with special food for fish (Special Diet Services, Scientific Fish Food, SDS 300–400). In total, 30 male Sprague Dawley rats were used in the behavioral screening study, and 53 male Wistar rats in the locomotion study (N = 23) and the delay discounting test (N = 30). The animals were housed under constant environmental conditions (12-h photoperiod at 22 ± 2°C) with ad libitum access to food and water. All animal experiments were conducted in accordance with the European Directive 2010/63/EU of the European Parliament (Council of 22 September 2010 on the protection of animals used for scientific purposes) and were approved by the local Bioethics Commissions. All manipulations with animals were carried out at the end of the 14-day adaptation period.
We administered LCGM peptides intranasally. Peptides were dissolved in saline at a concentration appropriate for the dosage. For administration, the rat was held in a horizontal position, with its head slightly tilted back. Then, using an automatic laboratory pipette, no more than 10 μL of the peptide solution was carefully introduced into each nostril of the rat. After visually confirming that the entire volume of liquid entered the animal’s nose, the rats were returned to their home cage. […] This route of administration has several advantages for short peptides, such as rapid systemic drug absorption and the potential to bypass the blood–brain barrier more effectively and access the central nervous system ([Pires et al., 2009]; [Lochhead and Thorne, 2012]). For patients, this method is relatively noninvasive and limits the side effects associated with peripheral administration of substances ([Meredith et al., 2015]).
Spontaneous locomotor activity (SLA) was measured using the Activiscop setup (NewBehavior Inc., Switzerland) ([Madani et al., 2003]). The animals were kept in home cages with free access to food and water. Motor activity was recorded using an infrared sensor located above each cage. The experiment lasted 2 days: On the first day, baseline activity was recorded, and then Wistar rats received LCGM-10 (5 mg/kg in saline, intranasal) and caffeine (30 mg/kg in saline, intraperitoneal) and were recorded for another 24 h. The days were divided into day 1 (12: 00–18: 59), night (19: 00–06: 59), and day 2 (07: 00–11: 59). The results are presented as the number of behavioral acts per minute (arbitrary units [a.u.]) for each animal. The experiment was performed by the Serbsky National Medical Research Center for Psychiatry and Narcology on a contract basis.

Assay [4] deals with zebrafish. The settings on record: ref Malyshev et al., 2021; cited from earlier work. An excerpt: We carried out the two most common tests to evaluate the fish response to the stressful conditions of novelty (NTT) and bright light (LDB). Figure 1 represents the summary data of the effects of the LCGM peptides on the NTT and LDB results relative to each group control, expressed as z-scores. The Supporting Information contains the examples of motor tracks (Supplementary Figures S1, S2), and primary data (Supplementary Figures S3, S4), and Table 2 provides the results of the two-way ANOVA.

Take `Cc1cccc(/C=C/c2ccccc2)n1` [SIB-1893]: in the assay with mGluR4 [1], the “PAM activity at mGluR4 (in words)” value is “able to act as PAMs of mGluR4”.
`Cc1nc(C#Cc2cccnc2)cs1` [MTEP]: the “PAM activity at mGluR4 (in words)” value in the assay with mGluR4 [1] was “The effect is not observed”.
For `Cc1ccc(O)c(N=Nc2ccccc2)n1` [SIB 1757], in the assay on mGluR4 [1], the “PAM activity at mGluR4 (in words)” value is on record as “The effect is not observed”. Further, the “antagonist effect on mGluR5 activity (in words)” value is “inhibited mGluR5 activity” in the assay on mGluR5 and “depleted” with mGluR5 (listed as SIB1757).
For the compound `O=C(Nc1ccccc1)C12CC1/C(=N\O)c1ccccc1O2` (single isomer, unassigned; (-)) [(−)-PHCCC], the “reference ligand effect on mGluR1 (in words)” value in the assay on mGluR1 is recorded as “inhibited DHPG-induced mGluR1 activity”. In addition, the “reference ligand effect on mGluR4 (in words)” value in the assay with mGluR4 [2] is recorded as “enhanced L-AP4-induced mGluR4 activity”.
Turning to `Cc1cccc(C#Cc2ccccc2)n1` [MPEP, 2-methyl-6-(phenylethynyl) pyridine], in the assay on mGluR4 [1], the “PAM activity at mGluR4 (in words)” value is given as “able to act as PAMs of mGluR4”. In the assay on human mGluR5 (vs 1 mM GluNa, Fluo-4 AM, 3 min preincubation 37°C, pH 7.4, peak fluorescence, N = 6), the “effect on GluNa-evoked Ca2+ influx (in words)” value was “effectively blocked GluNa-evoked calcium oscillations in cells at all tested doses”. The “concentrations with significant reduction of intracellular Ca2+ levels” value in the assay on human mGluR5 (vs activated control (1 mM GluNa), peak fluorescence, q < 0.05, N = 6 each) is 0.1 to 100 µM. Besides, the “effect on locomotion (in words)” value with rodents (applied to olfactory bulbs, dorsolateral striatum, dorsal hippocampus) is recorded as “stimulatory effect on locomotion”. The “brain regions without locomotor stimulation (in words)” value in the assay on rodents (local application) was “not primary motor area and ventral striatum”.
As to `N[C@@H](CCC(=O)O)C(=O)[O-].[Na+]` [GluNa], the “agonist effect on Ca2+ (in words)” value with human mGluR5 (GluNa 1 mM vs non-activated cells, peak fluorescence, N = 7 (activated), N = 5 (basal)) is given as “enhanced fluorescence peak intensity; also recorded: enhanced Ca^2+ influx”.
In the case of `CNCC[C@@H](Oc1ccccc1C)c1ccccc1` [atomoxetine], the “effect size of non-stimulants” value in the assay on ADHD patients is reported as not above 60%.
Take `Cn1c(=O)c2c(ncn2C)n(C)c1=O` [caffeine]: in the assay with zebrafish [3] (caffeine 10 mg/kg), the “effect on locomotion (in words)” value was “motor-stimulating effects”. For the same compound, the “duration of SLA increase” value with mice is “up to 3 h”. Besides, in the assay with Wistar rats (LCGM-10 5 mg/kg intranasal or caffeine 30 mg/kg intraperitoneal, night (19:00–06:59), F2, 20 = 0.6, p = 0.56), the “SLA at night (in words)” value was “no effects of treatment on the nighttime activity”. Further, in the assay with Wistar rats (LCGM-10 5 mg/kg intranasal, caffeine 30 mg/kg intraperitoneal, 30-min intervals), the “duration of SLA increase after administration” value was “up to 90 min”. In addition, the “SLA on day 1 (in words)” value in the assay on Wistar rats (caffeine 30 mg/kg intraperitoneal, day 1 (12:00–18:59), N = 7–8) is “enhanced SLA; also recorded: significant induction of SLA”. Moreover, the “SLA on day 2 (in words)” value with Wistar rats (caffeine 30 mg/kg intraperitoneal, day 2 (07:00–11:59), N = 7–8) is listed as “hypokinesia; also recorded: significant reduction in SLA”. Moreover, the “hypokinetic rebound (in words)” value in the assay with Wistar rats (single administration, LCGM-10 compared with caffeine) is recorded as “followed by a locomotor depression”.
For `NC(C(=O)O)c1cc(O)ccc1Cl` (racemic) [CHPG], the “agonist effect on luciferase signal (in words)” value with mGluR5 (CHPG 1 mM) is “enhanced; also recorded: induced a luciferase signal”.
Take `N=C(N)NC(=O)Cc1c(Cl)cccc1Cl` [guanfacine]: the “effect size of non-stimulants” value in the assay with ADHD patients is given as not above 60%.
Regarding `CC(NC(C)(C)C)C(=O)c1cccc(Cl)c1` (stereo not shown) [bupropion], the “effect on locomotion (in words)” value in the assay on zebrafish [3] (bupropion 30 mg/kg) was “motor-stimulating effects”.
On to `N[C@@H](CCP(=O)(O)O)C(=O)O` [L-AP4], for which the “reference ligand effect on mGluR4 (in words)” value with mGluR4 [2] is “induced luciferase signals”.
As for `Clc1cccc(Cl)c1N=C1NCCN1` [clonidine], the “effect size of non-stimulants” value in the assay with ADHD patients is listed as not above 60%.
As to `CN1C(=O)CN=C(c2ccccc2)c2cc(Cl)ccc21` [diazepam], in the assay with zebrafish [4], the “anxiolytic-like activity (in words)” value is recorded as “anxiolytic-like activity”.
On to `N[C@H](C(=O)O)c1cc(O)cc(O)c1` [DHPG], for which the “reference ligand effect on mGluR1 (in words)” value in the assay with mGluR1 is “induced luciferase signals”.
